Assay results taken from patent publication US20250276031A1, “PRODRUGS AS SELECTIVE ANTIBIOTICS AGAINST COLIBACTIN-PRODUCING E. COLI” (New York University in Abu Dhabi Corporation, priority 2024, published 2025).

Assays:
[1] = tested on: E. coli C41 DE3 pet29b_clbP pSEVA631_mGFP and E. coli C41 DE3 pet29b pSEVA_mScarlet-i; assay: Co-culture competition assay with PXCNA (mGFP / mScarlet-i fluorescence, OD600); type: cell-based
Experimental: PXCNA activity was measured via fluorescence (see FIGS. 18 and 19).
A co-culture assay was performed. Overnight cultures of E. coli C41 DE3 pet29b_cIbP pSEVA631_mGFP and E. coli C41 DE3 pet29b pSEVA_mScarlet-i were prepared separately each from a single colony. Then 1:100 dilution of each culture into the same LB media well supplemented with kanamycin (50 μg/ml) and gentamycin (15 μg/ml) was performed. […] Samples were fed with PXCNA with a final concentration of 25 mg/L.

[2] = tested on: E. coli expressing the ClbP protease; assay: Growth curves with PXCNA; type: cell-based; details: crude extract, 10, 25, 50 mg/L; IPTG induced; 22° C., 24 hrs, OD600
Experimental: Growth curves made using PXCNA. Briefly, a single colony from E. coli strain C41(DE3)_ΔacrABpET-29b clbP strain was inoculated into LB medium supplemented with kanamycin (50 μg/ml). This culture was grown overnight at 37° C. while shaking at 200 RPM. 1:100 dilution of overnight culture into fresh LB medium supplemented with kanamycin (50 μg/ml) was performed. Samples were induced with IPTG (0.5 mM). A crude extract of PXCNA prepared in methanol (1 mg/ml). The final concentration in samples was 50 mg/L, 25 mg/L and 10 mg/L. Samples were incubated at 22° C. for 24 hrs and OD600 was measured using TecanSpark.

[3] = tested on: Escherichia coli ribosome; details: comparison value, no own experiment described; read-out: IC50 of chloramphenicol given for comparison; cited from earlier work

In the case of `CC(C)CCCC(=O)N[C@H](CC(N)=O)C(=O)N[C@@H](CCCN=C(N)N)[C@H](O)[C@H](O)C(=O)N[C@@H](CC(C)C)[C@@H]1Cc2cccc(O)c2C(=O)O1` [PXCNA, prexenocoumacin], the “mGFP and mScarlet-i fluorescence in co-culture” value ([1]; PXCNA 25 mg/L, vanillic acid, with or without IPTG) is reported as “low level of fluorescence observed for both”, the “OD600 growth of E. coli C41 DE3 pet29b_clbP pSEVA631_mGFP” value ([1]; only vanillic acid and PXCNA added, no IPTG) is reported as “growth did not appear inhibited” and the “selective killing of ClbP expressing E. coli” value [2] is reported as “kills selectively E. coli expressing the ClbP protease”.
For `O=C(N[C@H](CO)[C@H](O)c1ccc([N+](=O)[O-])cc1)C(Cl)Cl` [chloramphenicol], the IC50 [3] is listed as 2.8 µM.
